One compound from patent US4598066A, “Antimycoplasmal agent for animals and method of use for prevention and treatment of mycoplasmosis” (Fujisawa Pharmaceutical Co., Ltd., priority 1982, dated 1986) can be followed below.

The test concerns Mycoplasma gallisepticum 1RF. The test can be described thus: Test 5: Mycoplasma gallisepticum 1RF intranasal infection in chickens, Compound 1 and tylosin alone and combined. It is filed as in vivo, chicken. The following applies: single oral dose 100 mg/kg 1 hr after intranasal infection; 20 days after infection (group C). The protocol: Mycoplasma: Mycoplasma gallisepticum 1RF supplied from the National Institute of Animal Health, Ibaraki prefecture, Japan was used.
Chickens used: Broiler males (Chunky), purchased as day-old chickens from a commercial flock free of Mycoplasma gallisepticum agglutinins, were maintained under isolation in an electrically heated battery brooder. When birds reached 7 to 8 days of age, they were used for test.
Infection of mycoplasma: Mycoplasma gallisepticum 1RF was cultured in PPLO liquid medium (Difco) for 3 to 4 days at 37° C. until the colour of broth changed from red to yellowish organge. An aliquot of the culture (10^7 -10^8 cfu/ml) was used for infection.
Intranasal infections were produced by dropping 0.05 ml of the culture into the nasal cavity of chickens.
Recovery of mycoplasma: Twenty to 21 days after infection, the chickens were killed and recovery of mycoplasma was examined from the trachea, air-sac, and tibia-metatarsus joints.
Recovered organisms were identified as Mycoplasma gallisepticum after examining glucose fermentation, colonies, and haemadsorption test.
Inhibition(%) of infection: Average recovery percentage of Mycoplasma gallisepticum from trachea, air-sac, and tibia-metatarsus joints was measured infected medicated, and infected non-medicated chickens.
Inhibition(%) was calculated as follows: [formula] […]

For `CC[C@H]1OC(=O)C[C@@H](O)[C@H](C)[C@@H](O[C@@H]2O[C@H](C)[C@@H](O[C@H]3C[C@@](C)(O)[C@@H](O)[C@H](C)O3)[C@H](N(C)C)[C@H]2O)[C@@H](CC=O)C[C@@H](C)C(=O)/C=C/C(C)=C/[C@@H]1CO[C@@H]1O[C@H](C)[C@@H](O)[C@@H](OC)[C@H]1OC` [Tylosin, tylosin], the “Inhibition (%) of infection” value was determined as 17%.
